Data: patent US9980943B2, “Methods of treating muscular dystrophy” (BOARD OF REGENTS OF THE NEVADA SYSTEM OF HIGHER EDUCATION, …, priority 2013, dated 2018)

Key:
Type in all cases: cell-based, mouse
[1] = tested on: β-galactosidase in CMV-LacZ C2C12 myotubes; assay: CMV-LacZ secondary screen in C2C12 myotubes (β-Gal stabilizing assay); conditions: for CMV-LACZ in Myotubes, signal relative to DMSO: C2C12 CMV-LacZ myotubes, fold relative to DMSO; for CMV-LACZ in Myotubes, value relative to DMSO: SU9516 analogs, C2C12 CMV-LacZ, N=2
In short: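 First, C2C12 myoblasts were transfected with a linearized CMV-LACZ vector and clonal lines selected by FDG β-gal assay. Then cells were exposed to compounds at 0.5, 1, 5, 10, 20 and 40 μM in 96-well format, two replicates each, and β-gal measured.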

[2] = tested on: β-galactosidase in CMV-LacZ C2C12 myoblasts; assay: CMV-LacZ secondary screen in C2C12 myoblasts (β-Gal stabilizing assay); conditions: for CMV-LACZ in Myoblasts (β-galactosidase activity relative to DMSO): CMV-LacZ C2C12 myoblasts; for CMV-LACZ in Myoblasts, value relative to DMSO: SU9516 analogs, C2C12 CMV-LacZ, N=2
In short: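 Stable CMV-LacZ C2C12 clone; six-point curve 0.5–40 μM; duplicates.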

[3] = tested on: α7 integrin (LacZ reporter in α7βgal+/− myoblasts); assay: Myoblast α7+/LacZ integrin FDG assay (Burkin assay in myoblasts, 96-well); conditions: 96-well; for Burkin Assay in Myoblasts, signal relative to DMSO: α7+/LacZ myoblasts; for Burkin Assay in Myoblasts, value relative to DMSO: SU9516 analogs, N=3-6
[4] = tested on: α7 integrin (LacZ reporter in α7+/LacZ myotubes); assay: Myotube α7 integrin FDG assay (Burkin assay in myotubes, 96-well); conditions: for Burkin Assay in Myotubes, value relative to DMSO: SU9516 analogs, 96-well, N=3-6

## O=c1c2cc(-c3ccccc3)sc2nc2n1N=C(c1ccccc1)CS2 [MLS000858981-01]
[1]; 0.5 uM
  CMV-LACZ in Myotubes, signal relative to DMSO: 1.0257
[1]; 1 uM
  CMV-LACZ in Myotubes, signal relative to DMSO: 0.8419
[1]; 5 uM
  CMV-LACZ in Myotubes, signal relative to DMSO: 1.0786
[1]; 10 uM
  CMV-LACZ in Myotubes, signal relative to DMSO: 0.9781
[1]; 20 uM
  CMV-LACZ in Myotubes, signal relative to DMSO: 1.0421
[1]; 40 uM
  CMV-LACZ in Myotubes, signal relative to DMSO: 1.0000
[2]; 0.5 uM
  CMV-LACZ in Myoblasts (β-galactosidase activity relative to DMSO): 0.9229
[2]; 1 uM
  CMV-LACZ in Myoblasts (β-galactosidase activity relative to DMSO): 0.9696
[2]; 5 uM
  CMV-LACZ in Myoblasts (β-galactosidase activity relative to DMSO): 1.1687
[2]; 10 uM
  CMV-LACZ in Myoblasts (β-galactosidase activity relative to DMSO): 0.9009
[2]; 20 uM
  CMV-LACZ in Myoblasts (β-galactosidase activity relative to DMSO): 0.9985
[2]; 40 uM
  CMV-LACZ in Myoblasts (β-galactosidase activity relative to DMSO): 0.9696
[3]; 0.5 uM
  Burkin Assay in Myoblasts, signal relative to DMSO: 0.953
[3]; 1 uM
  Burkin Assay in Myoblasts, signal relative to DMSO: 0.999
[3]; 5 uM
  Burkin Assay in Myoblasts, signal relative to DMSO: 1.186
[3]; 10 uM
  Burkin Assay in Myoblasts, signal relative to DMSO: 1.01
[3]; 20 uM
  Burkin Assay in Myoblasts, signal relative to DMSO: 1.0113
[3]; 40 uM
  Burkin Assay in Myoblasts, signal relative to DMSO: 1.005
[4]; 0.5 uM
  Burkin Assay in Myotubes, α7 integrin LacZ reporter signal relative to DMSO: 1.027
[4]; 1 uM
  Burkin Assay in Myotubes, α7 integrin LacZ reporter signal relative to DMSO: 0.8837
[4]; 5 uM
  Burkin Assay in Myotubes, α7 integrin LacZ reporter signal relative to DMSO: 1.055
[4]; 10 uM
  Burkin Assay in Myotubes, α7 integrin LacZ reporter signal relative to DMSO: 0.8922
[4]; 20 uM
  Burkin Assay in Myotubes, α7 integrin LacZ reporter signal relative to DMSO: 0.8526
[4]; 40 uM
  Burkin Assay in Myotubes, α7 integrin LacZ reporter signal relative to DMSO: 0.8173

## Cc1[nH]c(/C=C2\C(=O)Nc3ccc(S(=O)(=O)Cc4c(Cl)cccc4Cl)cc32)c(C)c1C(=O)C1CCCN1CN1CCCC1 (stereo not drawn) [NCGC00242500-01]
[1]; 0.5 uM
  CMV-LACZ in Myotubes, value relative to DMSO: 1.2482
[1]; 1 uM
  CMV-LACZ in Myotubes, value relative to DMSO: 1.9682
[1]; 5 uM
  CMV-LACZ in Myotubes, value relative to DMSO: 2.2432
[1]; 10 uM
  CMV-LACZ in Myotubes, value relative to DMSO: 3.3039
[1]; 20 uM
  CMV-LACZ in Myotubes, value relative to DMSO: 5.2430
[1]; 40 uM
  CMV-LACZ in Myotubes, value relative to DMSO: 7.0800
[2]; 0.5 uM
  CMV-LACZ in Myoblasts, value relative to DMSO: 1.1021
[2]; 1 uM
  CMV-LACZ in Myoblasts, value relative to DMSO: 1.1446
[2]; 5 uM
  CMV-LACZ in Myoblasts, value relative to DMSO: 1.6977
[2]; 10 uM
  CMV-LACZ in Myoblasts, value relative to DMSO: 2.4909
[2]; 20 uM
  CMV-LACZ in Myoblasts, value relative to DMSO: 0.3570
[2]; 40 uM
  CMV-LACZ in Myoblasts, value relative to DMSO: 0.4237
[3]; 0.5 uM
  Burkin Assay in Myoblasts, value relative to DMSO: 1.052
[3]; 1 uM
  Burkin Assay in Myoblasts, value relative to DMSO: 1.076
[3]; 5 uM
  Burkin Assay in Myoblasts, value relative to DMSO: 0.8704
[3]; 10 uM
  Burkin Assay in Myoblasts, value relative to DMSO: 0.5879
[3]; 20 uM
  Burkin Assay in Myoblasts, value relative to DMSO: 0.01841
[3]; 40 uM
  Burkin Assay in Myoblasts, value relative to DMSO: 0.01945
[4]; 0.5 uM
  Burkin Assay in Myotubes, value relative to DMSO: 0.9974
[4]; 1 uM
  Burkin Assay in Myotubes, value relative to DMSO: 0.9391
[4]; 5 uM
  Burkin Assay in Myotubes, value relative to DMSO: 0.9422
[4]; 10 uM
  Burkin Assay in Myotubes, value relative to DMSO: 0.7534
[4]; 20 uM
  Burkin Assay in Myotubes, value relative to DMSO: 0.652
[4]; 40 uM
  Burkin Assay in Myotubes, value relative to DMSO: 0.2132

## CCn1c(=O)c2cc(C(=O)N(C)c3cc(C)ccc3OC)sc2c2ccccc21 [MLS000731285-01]
[1]; 0.5 uM
  CMV-LACZ in Myotubes, signal relative to DMSO: 1.2048
[1]; 1 uM
  CMV-LACZ in Myotubes, signal relative to DMSO: 1.0562
[1]; 5 uM
  CMV-LACZ in Myotubes, signal relative to DMSO: 1.4794
[1]; 10 uM
  CMV-LACZ in Myotubes, signal relative to DMSO: 1.3012
[1]; 20 uM
  CMV-LACZ in Myotubes, signal relative to DMSO: 1.0310
[1]; 40 uM
  CMV-LACZ in Myotubes, signal relative to DMSO: 0.6450
[2]; 0.5 uM
  CMV-LACZ in Myoblasts (β-galactosidase activity relative to DMSO): 1.1747
[2]; 1 uM
  CMV-LACZ in Myoblasts (β-galactosidase activity relative to DMSO): 1.0853
[2]; 5 uM
  CMV-LACZ in Myoblasts (β-galactosidase activity relative to DMSO): 1.0851
[2]; 10 uM
  CMV-LACZ in Myoblasts (β-galactosidase activity relative to DMSO): 0.8436
[2]; 20 uM
  CMV-LACZ in Myoblasts (β-galactosidase activity relative to DMSO): 0.9582
[2]; 40 uM
  CMV-LACZ in Myoblasts (β-galactosidase activity relative to DMSO): 0.6572
[3]; 0.5 uM
  Burkin Assay in Myoblasts, signal relative to DMSO: 1.064
[3]; 1 uM
  Burkin Assay in Myoblasts, signal relative to DMSO: 0.9235
[3]; 5 uM
  Burkin Assay in Myoblasts, signal relative to DMSO: 0.7727
[3]; 10 uM
  Burkin Assay in Myoblasts, signal relative to DMSO: 0.7344
[3]; 20 uM
  Burkin Assay in Myoblasts, signal relative to DMSO: 0.604
[3]; 40 uM
  Burkin Assay in Myoblasts, signal relative to DMSO: 0.6077
[4]; 0.5 uM
  Burkin Assay in Myotubes, α7 integrin LacZ reporter signal relative to DMSO: 0.8544
[4]; 1 uM
  Burkin Assay in Myotubes, α7 integrin LacZ reporter signal relative to DMSO: 0.961
[4]; 5 uM
  Burkin Assay in Myotubes, α7 integrin LacZ reporter signal relative to DMSO: 0.8695
[4]; 10 uM
  Burkin Assay in Myotubes, α7 integrin LacZ reporter signal relative to DMSO: 0.9409
[4]; 20 uM
  Burkin Assay in Myotubes, α7 integrin LacZ reporter signal relative to DMSO: 0.69
[4]; 40 uM
  Burkin Assay in Myotubes, α7 integrin LacZ reporter signal relative to DMSO: 0.1953
